Results on two compounds are retold here after EP3016671B1, “ACTIVELY T[…] PROTEASE-RESISTANT PEPTIDES AS BBB SHUTTLES AND SHUTTLE-CARGO CONSTRUCTS” (Universitat de Barcelona, priority 2013, dated 2015).

Data set [1] has as its system mice. The following applies: amount in 200 µL injected; cited from earlier work.
Data set [2] concerns mice. Briefly: Acute toxicity (lethality) after intracaudal injection in mice. The format is in vivo, Swiss white mice. The following applies: six mice, observed up to 24 hours. The method, then:
(§1) • 1) In zebra fish: The assay was performed by Neuron Bio (Granada). The protocol was based on the assessment of the acute toxicity of substances on zebra fish (Danio rerio) using a static method. This short-term toxicity assay method replicated the guidelines of the document OECD Draft Guideline for the study of chemicals, Fish Embryo Toxicity (FET) Test (30 May, 2006). 5 concentrations were evaluated (4.6, 10, 22, 46 and 100 mg/L) in water containing 0.1% DMSO. A control group (vehicle: water and 0.1 % DMSO) and a group with 3,4-dicloroaniline were set up to make sure test conditions were reproducible. […] Apamin (SEQ ID NO:16) was dissolved in phosphate buffer saline (vehicle) so that 200 µL would contain 50 nmol of this peptide (corresponding to its LD50). Compound with SEQ ID NO:9 was dissolved in the same buffer so that 200 µL would contain 1200 nmol of this peptide (near the solubility limit). A first group of six mice (male, 20±2 g, Swiss white mice) were injected with 200 µL of apamin. A second group of six mice were injected with 200 µL of compound with SEQ ID NO:9. A third group of mice were injected with 200 µL of vehicle.

Data set [3] is described as follows: Transport across the BBB, in vitro bovine cell assay (co-culture, transwell). The following applies: pH 7.4. An excerpt: (§2) The evaluation method chosen to test the compounds of formula (I) and (II) of the invention was a cell-based assay consisting of a co-culture of brain endothelial cells and astrocytes, which allows to evaluate or to predict the transport of compounds through the BBB. The co-culture method used was described by Gaillard and de Boer in 2008 (Gaillard, PJ et al. "2B-Trans technology: targeted drug delivery across the blood-brain barrier" Methods Mol Biol 2008, vol. 437 pp. 161-175) and consists in seeding of rat astrocytes in a side of a polycarbonate filter (transwell) and bovine brain endothelial cells on the other side of the filter. Under these conditions endothelial cells are able to reach the confluence mimicking the BBB. […] Is commonly used model for permeation studies and toxicity of compounds across the BBB.
(§3) The co-culture assay was used to determine the capacity of the constructs cargo-shuttle to cross the BBB. The apparent permeability of the compounds was measured in triplicate at a concentration of 200 µ M for Examples 1, 2, 3, 5, 10, 13, 15, 16, 17 and 19 and at a concentration of 1.75 µM for Example 21. All the assays were performed with transendothelial electrical resistance values equal or higher than 100 Ω · cm^2 and were carried out in the presence of lucifer yellow to assess the integrity of the cell membrane during the test. The permeability tests were performed in Ringer-HEPES buffer at pH 7.4. The compound of interest was dissolved in the buffer to the desired concentration.
(§4) Once the endothelial cells were confluent on the filters (transwells) these were washed with Ringer-HEPES buffer. The acceptor well was filled with 800 µ L of Ringer-HEPES buffer and the donor well with 200 µL of the solution of the compound to be studied. The system was incubated at 37 °C and 5% CO2 for 2 h. After that time the content of the acceptor and donor compartments were analyzed by HPLC-UV, direct ELISA or fluorescence (depending on cargo anchored to the shuttle). […] The apparent permeability was calculated using the following equation: Papp = (dQ/dt) * (1/A) * (1/CO) (cm/s), where (dQ/dt) is the amount of compound present in the compartment acceptor function of time (nmol/s). A is the area of the filter(cm2) and CO is the initial concentration of the compound applied in the donor compartment (nmol/mL).

The test system of data set [4] is bovine brain endothelial cells. The description is as above. The following applies: bovine cell model, 2 h, 37 °C, Ringer-HEPES pH 7.4; 200 µM (Example 21: 1.75 µM).
Description: as §2, §3, §4

The next data set deals with zebra fish (Danio rerio). The experiment in a line: Acute toxicity in zebra fish, Fish Embryo Toxicity (FET) test. The format is in vivo. The following applies: static method, 4.6, 10, 22, 46 and 100 mg/L in water containing 0.1% DMSO. The method, then:
as §1

Data set [5] is described as follows: Stability of the shuttles in human serum. The format is in vitro ADME. The following applies: 400 µM, HBSS, 37 °C, 90% human serum, 24 h. The procedure:
Regarding to the stability study in human serum of the BBB-shuttle (examples 1, 2, 3 and 5), the peptides were incubated at a concentration of 400 µM in buffer HBSS at 37 °C in the presence of 90% human serum. At a range of times, 100 µL aliquots were collected to which methanol was added in order to precipitate the serum proteins. Samples were centrifuged, filtered and analyzed by HPLC-UV and MALDI-TOF MS to determine the degree of degradation of the BBB-shuttle. […] The half life of the derivative bearing a single disulfide bond was 3 h (examples 2), whereas that of the linear version was no more than 8 min.

A short description of data set [6]: Evidences of active transport in the bovine cell model (NaN3 inhibition, saturation, 4 °C, abluminal-luminal). The format is in vitro ADME. The following applies: bovine; 200 µM, 37 °C, 2 h, abluminal compartment as donor. The procedure:
(§5) 1) NaN3 inhibition: Sodium azide (NaN3) is an inhibitor of the resipiratory pathway and, therefore, decreases energy-dependent processes such as transcytosis. […] 2) saturation: Three concentrations of the compound with SEQ ID NO9 were assayed following the procedure of the Example 28.
(§6) The results are consistent with a saturable transport mechanism considering the plateau region has been reached at 100 µM. 3) dramatic decrease in permeability at reduced temperature: The procedure of the Example 28 was followed until the endothelial cells were confluent. To perform the experiment, the filters (transwells) were washed with Ringer-HEPES buffer. The abluminal compartment was filled with 800 µL of Ringer-HEPES and the luminal compartment was filled with 200 µL of the compound with SEQ ID NO 9 in Ringer-HEPES (200 µM). The system was incubated at 4 °C and 5 % CO2 for 2 h. […] The permeability at 4 °C is 0.23±0.04)·10^-6 cm/s, which is dramatically lower (P < 0.0001, unpaired t-test) than at 37 °C. This low transport is consistent with an energy-dependent process. 4) luminal-abluminal transport > abluminal-luminal transport.: The procedure of the Example 28 was followed until the endothelial cells were confluent. […] The abluminal compartment (in this experiment the donor) was filled with 800 µL of the compound with SEQ ID NO 9 in Ringer-HEPES (200 µM) and the luminal compartment (in this experiment the acceptor) with 200 µL Ringer-HEPES.

In data set [7] the test system is bovine brain endothelial cells. The description is as above. The format is in vitro ADME. The following applies: for Relative transport: saturation. The method, then: as §5, §6
Data set [8] is described as follows: Solubility limit in phosphate buffer saline (dosing solution). The format is physicochemical. The following applies: in 200 µL phosphate buffer saline. The procedure:
as §1

A short description of data set [9]: PAMPA assay (passive diffusion). The following applies: 400 µM, pH 7.4, 4 h, 20°C, four replicates. The format is in vitro ADME. The method, then: The buffer was prepared from the concentrated solution by plON, following the manufacturer's instructions. The pH was adjusted to 7.4 using a solution of 0.5 M NaOH. The PAMPA sandwich was separated, and the donor well was filled with 195 µL of the compound with SEQ ID NO 9 (400 µM) solution and a stirring magnet was added. The acceptor plate was then placed into the donor plate. Next, 4 µL of the 20 mg/mL phospholipid mixture (PBLEP) in dodecane was added to the filter of each well, and 200 µL of buffer solution was added to each acceptor well. The plate was then covered. Four replicates were performed for each compound. The PAMPA plate was incubated for 4 h at 20°C and under saturated atmosphere in a GUT-BOXTM apparatus under an agitation vigorous enough to reduce the unstirred water layer (UWL) to 25 µm. After the incubation, the sandwich was separated, and an aliquot of each donor and acceptor well was analyzed by RP-HPLC-UV ad MALDI-TOF MS.
(In PAMPA a lipid-coated filter parts donor from acceptor wells.)

Positions of bridges follow the written chain, without caps; N, C: chain ends. Residues, ends and D or L forms follow the SMILES beside them.

Broadly, the Papp is a coefficient for how fast a substance crosses the barrier. The low end stands for poor permeation, the high end for ready permeation. In the case of `CC(C)C[C@@H]1NC(=O)[C@H](C)NC(=O)[C@H]([C@@H](C)O)NC(=O)[C@H](CCC(=O)O)NC(=O)[C@@H]2CCCN2C(=O)[C@H](C)NC(=O)[C@H](CCCCN)NC(=O)[C@@H]2CSSC[C@@H](C(=O)N[C@@H](CCC(N)=O)C(=O)N[C@@H](CCC(N)=O)C(=O)N[C@@H](Cc3cnc[nH]3)C(N)=O)NC(=O)[C@H](CCCNC(=N)N)NC(=O)[C@H](CCCNC(=N)N)NC(=O)[C@H](C)NC(=O)[C@H](CSSC[C@H](N)C(=O)N[C@@H](CC(N)=O)C(=O)N2)NC1=O` [Comparative example 1, H-Cys-Asn-Cys-Lys-Ala-Pro-Glu-Thr- Ala-Leu-Cys-Ala-Arg-Arg-Cys-Gln-Gln-His-NH2, reference compound], the LD50 in the data set with mice [1] was 50 nmol. Besides, in the data set with mice [2] (50 nmol in 200 µL), the animals that died entry was “two” and the “animals that showed convulsions during the first hours” value was “All the animals”. The Papp in data set [3] was found to be 0.8 ± 0.1 ×10⁻⁶ cm/s. Moreover, in data set [4], the “Transport (%) (2h)” value turned out to be 0.9±0.2%.
Usually Papp B→A stands for the apparent permeability from the basolateral to the apical side of a cell layer. On to `CC(C)C[C@@H]1NC(=O)[C@H](C)NC(=O)[C@H]([C@@H](C)O)NC(=O)[C@H](CCC(=O)O)NC(=O)[C@@H]2CCCN2C(=O)[C@H](C)NC(=O)[C@H](CCCCN)NC(=O)[C@@H]2CSSC[C@@H](C(=O)N[C@@H](Cc3c[nH]cn3)C(N)=O)NC(=O)[C@H](C)NC(=O)[C@H](C)NC(=O)[C@H](C)NC(=O)[C@H](CSSC[C@H](N)C(=O)N[C@@H](CC(N)=O)C(=O)N2)NC1=O` [Example 1, H-Cys-Asn-Cys-Lys-Ala-Pro-Glu-Thr-Ala-Leu-Cys-Ala-Ala-Ala-Cys-His-NH2] (H-CNCKAPETALCAAACH-NH2; disulfide 1-11, 3-15), for which the “lethal parameters of the embryos” value in the data set with zebra fish (Danio rerio) was “None of the lethal parameters studied in the embrios treated with the compound with SEQ ID NO:9 was different from those treated with the vehicle”. Moreover, the “degradation in human serum” value in data set [5] is “No degradation”. Moreover, in the data set on mice [2] (1200 nmol in 200 µL), the animals that died result is recorded as “no animal” and the “animals that showed any envenomation symptoms” value is reported as “no animal”. In [3] (bovine), this compound yielded an apparent permeability (Papp) at 2 h of 2.7 ± 0.3 ×10⁻⁶ cm/s. Besides, the “Transport (%) (2h)” value in data set [4] was 3.2±0.3%. The Papp B→A at 2 h, 200 µM in data set [6] was 1.06 ± 0.03 ×10⁻⁶ cm/s. For the same compound, in [7] (200 µM, 4 °C, 5 % CO2, 2 h, luminal to abluminal), the “permeability at 4 °C” value is on record as 0.23±0.04 ·10^-6 cm/s. In addition, the “transport after NaN3 treatment” value in data set [7] (30 min treatment with 1.5 mM sodium azide prior to the permeability assay) is “very significantly (p < 0.001) inhibited”. Besides, the Relative transport in [7] (concentration 100 µM) was 100±39. The same compound yielded a Relative transport in data set [7] (concentration 200 µM) of 110±6. For the same compound, in data set [7] (concentration 500 µM), the Relative transport was found to be 86±6. The compound also displayed a solubility limit in data set [8] of around 1200 nmol. Moreover, in [9], the “detection in PAMPA by HPLC-UV” value is reported as “could not be detected” and the “detection in PAMPA by MALDI-TOF MS” value is “only in two out of four replicates was found”.
